{
  "source": "patent US20260048062A1",
  "about": "“FUSED AMINO PYRIMIDINE COMPOUNDS FOR TREATMENT OF PSYCHOSIS AND PSYCHOTIC DISORDERS” (Ovid Therapeutics Inc., priority 2024, published 2026)",
  "key": {"[1]": {"test_system": "panel of 144 protein kinases", "experiment": "SelectScreen panel of 144 protein kinases", "assay_type": "biochemical", "conditions": "includes PKC isoforms, OSR1, SPAK (STK39), WNK", "method": "Aliquots of HEK-293 cells expressing KCC2 were exposed to 30 μM SSA, heated from 37-55° C. The remaining level of soluble native KCC2 at each temperature was measured by immunoblotting and normalized to the level seen at 37° C. which was given a value of 1. […] This panel included protein kinase C isoforms, OSR1, SPAK (STK39) and with-no-lysine kinases (WNK), all of which phosphorylate KCC2 on multiple residues to indirectly modify its activity (Kahle et al., 2013, supra; Smalley et al., 2020, supra)."}, "[2]": {"test_system": "18-20 Div hippocampal neurons", "experiment": "Gramicidin perforated patch clamp, EGABA in hippocampal neurons", "assay_type": "cell-based, Sprague Dawley", "method": "Neuronal Cultures. Hippocampal neurons were prepared from Sprague Dawley E18 embryos and plated at 450,000 per dish and maintained at 37° C. in a humidified 5% CO2 incubator for 10-25 days before experimentation (Lee et al., Nat. Neurosci. 14, 736-743 (2011)).\nAt this developmental stage, GABAAR receptor activation leads to hyperpolarization, a phenomenon critically dependent upon KCC2 (Kontou et al., J Biol Chem, 100364 (2021)).\nNeuronal Patch clamp assays. Neuronal cell culture recordings were performed in bath saline at 34° C. For gramicidin perforated-patch experiments, pipettes contained (in mM): 140 KCl and 10 HEPES, pH 7.4 KOH. […] Bath saline contained the following (in mM): 140 NaCl, 2.5 KCl, 2.5 CaCl2, 2.5 MgCl2, 10 HEPES, and 11 glucose, pH 7.4 NaOH (Kontou et al., 2021, supra). All compound solutions were applied to cells using a three-barreled 700 μm pipe positioned just above the cell (Warner Instruments). […] 10 mV voltage-ramp protocols over 1-s periods were used to determine the reversal potentials of the leak-subtracted muscimol-activated GABAAR currents. All voltages from whole-cell experiments were corrected offline using a calculated liquid junction potential value (13.6 mV) in Clampex (Molecular Devices). For gramicidin perforated-patch experiments, intracellular Cl^− values were back-calculated using measured EGABA values and the Nernst equation: […]\nMeasurements were performed in the presence of bumetanide […] and tetrodotoxin (TTX; 300 nM) to limit the contributions of NKCC1 and activity dependent shifts in chloride levels, respectively (Lee et al., 2011, supra)."}, "KCC2": {"target": "T1, KCC2 (Homo sapiens, UniProt Q9H2X9)", "T1 construct": "expressed in transfected cells; host or cells: HEK-293 (ATCC CRL-1573), transient transfection", "T1 sequence (Q9H2X9 1-1116 isoform Q9H2X9-2)": "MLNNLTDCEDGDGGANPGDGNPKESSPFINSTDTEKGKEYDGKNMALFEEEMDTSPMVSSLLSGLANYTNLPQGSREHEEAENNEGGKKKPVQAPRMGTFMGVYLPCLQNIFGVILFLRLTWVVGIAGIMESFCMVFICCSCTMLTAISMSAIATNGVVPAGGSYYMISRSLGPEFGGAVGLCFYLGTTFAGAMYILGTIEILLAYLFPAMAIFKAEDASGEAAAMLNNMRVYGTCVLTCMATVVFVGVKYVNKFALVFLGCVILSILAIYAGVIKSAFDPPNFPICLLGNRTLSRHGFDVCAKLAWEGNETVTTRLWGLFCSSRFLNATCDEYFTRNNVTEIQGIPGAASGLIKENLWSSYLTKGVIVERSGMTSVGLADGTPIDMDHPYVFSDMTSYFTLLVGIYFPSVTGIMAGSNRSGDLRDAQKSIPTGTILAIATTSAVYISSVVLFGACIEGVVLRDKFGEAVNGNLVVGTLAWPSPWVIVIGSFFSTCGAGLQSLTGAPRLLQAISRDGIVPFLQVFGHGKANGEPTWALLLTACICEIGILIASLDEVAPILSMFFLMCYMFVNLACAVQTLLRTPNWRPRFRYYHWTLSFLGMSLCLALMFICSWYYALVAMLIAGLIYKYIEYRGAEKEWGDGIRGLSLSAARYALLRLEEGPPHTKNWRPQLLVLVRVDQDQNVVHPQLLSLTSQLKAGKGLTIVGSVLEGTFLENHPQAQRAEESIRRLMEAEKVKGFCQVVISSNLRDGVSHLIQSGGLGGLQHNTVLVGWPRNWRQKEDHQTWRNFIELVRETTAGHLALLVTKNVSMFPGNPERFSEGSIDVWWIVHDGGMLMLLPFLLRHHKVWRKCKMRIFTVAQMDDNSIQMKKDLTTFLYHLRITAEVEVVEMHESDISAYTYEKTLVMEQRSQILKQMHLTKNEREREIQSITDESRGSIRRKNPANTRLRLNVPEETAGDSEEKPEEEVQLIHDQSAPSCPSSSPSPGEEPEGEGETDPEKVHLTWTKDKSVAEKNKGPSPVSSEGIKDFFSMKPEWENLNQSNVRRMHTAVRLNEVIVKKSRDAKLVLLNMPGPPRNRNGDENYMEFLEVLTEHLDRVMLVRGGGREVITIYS", "experiment": "Biotinylation, plasma membrane level of KCC2 in HEK-293 cells", "assay_type": "cell-based", "conditions": "15 min", "method": "Cell Culture and biotinylation. HEK-293 cells were purchased from ATCC (CRL-1573) and transfected with human KCC2 and GFP expression plasmids using Lipofectamine 2000. Cells were utilized for experimentation 48-72 h following transfection. Cells were biotinylated at 4° C. using NHS-Biotin. Following lysis and purification on immobilized avidin beads, cell surface and total fractions were subject to immunoblotting as outlined previously (Conway et al., 2017, supra).\nThe reliability of the biotinylation procedure was assessed via immunoblotting with antibodies against the cytosolic protein actin. Actin was present in the total lysates but was absent from the surface fractions (FIG. 2C)."}},
  "data": [
    {"smiles": "C[C@@H]1CN(c2nc3c(c(Nc4ccc(C5CCCCC5)cc4)n2)COC3)CCO1", "note": "[Compound A, (R)—N-(4-cyclohexylphenyl)-2-(2-methylmorpholino)-5,7-dihydrofuro[3,4-d]pyrimidin-4-amine]", "values": [
      {"measurement": "activity of a panel of 144 protein kinases", "setting": "[1]", "result": "did not modify the activity"},
      {"measurement": "EGABA at 0 min", "setting": "[2]; 300 nM group, before treatment, bumetanide and TTX present", "result": "−75±3.1", "unit": "mV"},
      {"measurement": "EGABA at 15 min", "setting": "[2]; 300 nM, 15 min, bumetanide and TTX present", "result": "−85.1±4.2", "unit": "mV"},
      {"measurement": "reduction in Cl−", "setting": "[2]; 300 nM, 15 min, from EGABA by Nernst equation", "result": "2.2 ± 0.6", "unit": "mM"},
      {"measurement": "level of KCC2 on the plasma membrane (surface/total)", "setting": "KCC2; 0.3 μM", "result": "94.5±8.4 % of control"},
      {"measurement": "level of KCC2 on the plasma membrane (surface/total)", "setting": "KCC2; 3 μM", "result": "104.7±8.4 % of control"}
    ]}
  ]
}
